These results are taken from paper PMC8703807, “Synthesis of ^68Ga-Labeled cNGR-Based Glycopeptides and In Vivo Evaluation by PET Imaging” (Pharmaceutics, 2021).

Molecules are shown by their SMILES. Read-outs that look alike come from different tables or passages of the source. Positions of bridges follow the written chain, without caps; N, C: chain ends. Residues, ends and D or L forms follow the SMILES beside them. *: point of attachment. X1 = O=C(O)CN1CCN(CC(=O)O)CCN(C(CCC(=O)NCc2ccc(NC(=S)*)cc2)C(=O)O)CCN(CC(=O)O)CC1

The subject of series [1] is B16-F10 melanoma tumor-bearing mice. Nature of the series: In vivo PET imaging of B16-F10 melanoma tumor-bearing mice. As to conditions: 70 min after i.v. injection; for identification of subcutaneous B16-F10 tumors on PET images: qualitative. The procedure: (§1) For subcutaneous B16-F10 (mouse melanoma) tumor induction, C57BL/6 mice (n = 20) were anaesthetized with 3% isoflurane (Forane, AbbVie) using a dedicated small animal anesthesia device (Tec3 Isoflurane Vaporizer, Eickemeyer, UK) and mice were injected subcutaneously with 3 × 10^6 B16-F10 cells in 150 µL of sterile saline into the left shoulder area of the animals. In vivo and ex vivo experiments were carried out 10 ± 1 days after subcutaneous injection of tumor cells at the tumor volume of 80 ± 2 mm^3.
(§2) For in vivo biodistribution studies B16-F10 tumor-bearing mice were anaesthetized with 3% isoflurane and were injected with 6.6 ± 0.3 MBq [^68Ga]-11, or [^68Ga]-3, or [^68Ga]-9 or [^68Ga]-10 in 150 μL saline via the lateral tail vein 10 ± 1 days after subcutaneous injection of tumor cells. 20 min static PET scans were performed 70 min after intravenous injection of the radiotracers from the tumorous area using the preclinical miniPET-II device (University of Debrecen, Faculty of Medicine, Department of Medical Imaging, Division of Nuclear Medicine and Translational Imaging). After image reconstruction, volumes of interest (VOIs) were manually drawn around the examined regions using the BrainCAD image analysis software and quantitative standardized uptake values (SUVs) values were calculated.
(§3) Figure 1 In vivo PET imaging of [^68Ga]-11, [^68Ga]-3, [^68Ga]-9 and [^68Ga]-10 accumulation in B16-F10 tumor-bearing mice 10 ± 1 days after tumor cell inoculation and 70 min after intravenous injection of the radiotracers (A panel). Red arrows: B16-F10 tumor; black arrows: liver. (B,C) panels: quantitative SUVmean and tumor-to-background (muscle) ratio (T/M) analysis of tracer uptake in mice (n = 3/radiopharmaceutical) 70 min post-injection. Significance level: p ≤ 0.05 (*). SUV: standardized uptake value; T/M: tumor-to-muscle ratio. SUV values are presented as mean ± SD.

Test in series [2]: as above
As to conditions: C57BL/6, mouse, in vivo, iv, total radioactivity. The procedure: as §1, §2, §3

Series [3] in a line: Determination of logP value (octanol/water partition coefficient). It is filed as physicochemical. The procedure:
The mixture was shaken with a vortex shaker for 5 min and centrifugated (9000 rpm) for 5 min. A 3 × 20 µL amount of both solvents was pipetted into a vial. The radioactivity of the fractions was determined with a gamma counter.

Series [4] has as its system B16-F10 tumor-bearing mice. The conditions noted are these: ex vivo, 90 min after injection, compared to the other investigated molecules. The procedure: as §1
[5] abbreviates: tumor SUVmean, B16-F10 tumor, 70 min after i.v. injection, n = 3, mean ± SD.
Where [6] appears, read: 1-octanol/water, gamma counter, read-out: octanol/water partition coefficient (logP).

Turning to `N=C(N)NCCC[C@@H]1NC(=O)CNC(=O)[C@H](CC(N)=O)NC(=O)[C@H](CCCCNC(=O)CCC(=O)N2Cc3ccccc3-c3c(nnn3CCCO[C@@H]3O[C@H](CO)[C@@H](O[C@@H]4O[C@H](CO)[C@H](O)[C@H](O)[C@H]4O)[C@H](O)[C@H]3NC(=S)Nc3ccc(CNC(=O)CCC(C(=O)O)N4CCN(CC(=O)O)CCN(CC(=O)O)CCN(CC(=O)O)CC4)cc3)-c3ccccc32)NC(=O)CC[C@@H](C(N)=O)NC1=O` (stereo partly shown) [[^68Ga]-9, metal not drawn], the “liver SUVmean” value in series [1] (n = 3, mean ± SD) is on record as 0.18 ± 0.01. Moreover, the “identification of subcutaneous B16-F10 tumors on PET images” value (“identification” below) in series [1] is reported as “clearly identified”. The tissue to tissue ratio at 70 min in series [2] was 6.01 ± 1.24. The SUV at 70 min in series [2] (setting [5]) was 0.11 ± 0.03 SUV. In series [3] (setting [6]), the logP is -3.68.
Regarding `N=C(N)NCCC[C@@H]1NC(=O)CNC(=O)[C@H](CC(N)=O)NC(=O)[C@H](CCCCNC(=O)CCOCCOCCOCCOCCNC(=O)CCC(=O)N2Cc3ccccc3-c3c(nnn3CCCO[C@@H]3O[C@H](CO)[C@@H](O[C@@H]4O[C@H](CO)[C@H](O)[C@H](O)[C@H]4O)[C@H](O)[C@H]3NC(=S)Nc3ccc(CNC(=O)CCC(C(=O)O)N4CCN(CC(=O)O)CCN(CC(=O)O)CCN(CC(=O)O)CC4)cc3)-c3ccccc32)NC(=O)CC[C@@H](C(N)=O)NC1=O` (stereo partly shown) [[^68Ga]-10, metal not drawn], the “radioactivity concentration in blood” value in series [4] is on record as “higher radioactivity concentration”. Moreover, the “identification” value in series [1] was “clearly identified”. In addition, in series [2], the tissue to tissue ratio at 70 min amounted to 7.89 ± 1.31. Besides, the SUV at 70 min in series [2] (liver SUVmean, 70 min after i.v. injection, n = 3, mean ± SD) worked out at 0.1 ± 0.02 SUV; in series [2] (setting [5]) it was 0.15 ± 0.01 SUV. Besides, the logP in series [3] (setting [6]) is -3.69.
For the molecule `N=C(N)NCCC[C@@H]1NC(=O)CNC(=O)[C@H](CC(N)=O)NC(=O)[C@H](CCCCNC(=S)Nc2ccc(CNC(=O)CCC(C(=O)O)N3CCN(CC(=O)O)CCN(CC(=O)O)CCN(CC(=O)O)CC3)cc2)NC(=O)CC[C@@H](C(N)=O)NC1=O` (stereo partly shown) [[^68Ga]-11, metal not drawn] (K(X1)NGRE-NH2; lactam N-5), the “identification” value in series [1] is “clearly identified”. For the same molecule, the tissue to tissue ratio at 70 min in series [2] came out at 5.71 ± 1.17. Moreover, the figures for the SUV at 70 min in series [2] (liver SUVmean) and in series [2] (tumor SUVmean) were 0.28 ± 0.1 SUV and 0.09 ± 0.03 SUV, respectively. Further, in series [3], the logP was -4.13.
